Reference: PMC11472313, “Development of Fragment-Based Inhibitors of the Bacterial Deacetylase LpxC with Low Nanomolar Activity” (Journal of Medicinal Chemistry, 2024)
Converted amounts (≈) assume the structure as drawn. “And” between values parts separate entries of the source, which are not always exact repeats. Identical values can stand only once.

How the values were obtained:
LasB = target: T1, LasB (Pseudomonas aeruginosa, UniProt Q02RJ6); assay: FRET-based LasB in vitro inhibition assay; format: biochemical, P. aeruginosa PA14; settings: for inhibition at 20 µM: read-out: LasB Inhibition at 20 μM
T1 construct: The elastase LasB of P. aeruginosa is a secreted metalloprotease; endogenous in cells; host or cells: P. aeruginosa PA14 culture supernatant
T1 sequence (Q02RJ6 198-498): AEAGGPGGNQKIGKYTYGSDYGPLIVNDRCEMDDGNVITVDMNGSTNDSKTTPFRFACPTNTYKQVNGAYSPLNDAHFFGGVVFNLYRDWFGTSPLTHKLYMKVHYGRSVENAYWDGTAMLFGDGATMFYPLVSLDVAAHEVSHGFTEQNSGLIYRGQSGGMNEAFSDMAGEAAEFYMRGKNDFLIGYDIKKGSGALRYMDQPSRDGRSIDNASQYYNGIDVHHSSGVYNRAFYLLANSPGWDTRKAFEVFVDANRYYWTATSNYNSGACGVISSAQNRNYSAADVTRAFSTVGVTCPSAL
Description: Purification of LasB from P. aeruginosa PA14 supernatant and the subsequent performance of the FRET-based in vitro inhibition assay was performed as described previously.[66] The TACE (ADAM-17) inhibitor screening kit was purchased from Sigma-Aldrich (Saint Louis, MO). MMPs 1–3 along with the SensoLyte 520 Generic MMP Activity Kit Fluorimetric were purchased from AnaSpec (Fremont, CA, USA). The assays were performed according to the guidelines of the respective manufacturer. Fluorescence signals were measured using a CLARIOstar plate reader (BMG Labtech, Ortenberg, Germany).

E. coli BL21(DE3) [1] = assay: disc diffusion assay; format: cell-based; settings: 0.15 μmol per 6 mm disc
Description: (§1) Besides measuring the inhibitory activities toward E. coli LpxC C63A, the antibacterial activities of the synthesized hydroxamic acids were evaluated by determining their minimal inhibitory concentrations (MIC) in broth dilution tests as well as by performing disc diffusion assays (Table 1).
(§2) The disc diffusion assays against E. coli BL21(DE3) and the defective strain E. coli D22 were performed as follows: liquid cultures of the bacteria were grown overnight in lysogeny broth (LB)[73] at 37 °C and 200 rpm. 150 μL of an overnight cell suspension was spread evenly onto LB agar plates. 0.15 μmol of each compound (dissolved in 10 or 15 μL DMSO) were applied onto circular filter paper (Ø = 6 mm, Cytiva). Pure DMSO, serving as a negative control, and CHIR-090, serving as a positive control, were also spotted. The agar plates were incubated overnight at 37 °C, and the diameter of the zone of growth inhibition was measured for each compound. Each assay was performed at least three times on separate days.

E. coli D22 [2] = assay: disc diffusion assay; format: cell-based; settings: 0.15 μmol per 6 mm disc
Description: as §1, §2

E. coli BL21(DE3) [3] = assay: MIC, broth microdilution; format: cell-based; settings: 20 h, 37 °C, LB; for MIC: Escherichia coli
Description: as §1
(§3) The MIC values of the compounds were determined by means of the microdilution method using 96-well plates.
(§4) The overnight suspension was diluted 1:1000 in fresh LB. 10 μL of a 2-fold dilution series of the compounds in DMSO and 90 μL of LB were dispensed to each well of a 96-well plate. Then, 100 μL of the inoculated medium was added, resulting in 5 × 10^5 cfu mL^–1, 5% DMSO, and a final concentration range of the test compounds between 64 and 0.016 μg mL^–1. The plates were incubated for 20 h at 37 °C. The MIC was defined as the lowest concentration of the compounds that prevented visible growth after incubation. Each assay was performed at least three times on separate days.

E. coli D22 [4] = assay: MIC, broth microdilution; format: cell-based; settings: Escherichia coli, 20 h, 37 °C, LB
Description: as §1, §3, §4

E. coli LpxC C63A = target: T2, E. coli LpxC C63A (Escherichia coli, UniProt P0A725, C63A); assay: fluorescence-based E. coli LpxC C63A enzyme inhibition assay; format: biochemical; settings: for fold higher LpxC inhibitory activity than its enantiomer (eudysmic ratio): E. coli LpxC C63A, (S) versus (R); for Ki: Ki E. coli LpxC C63A, from IC50 via Cheng–Prusoff
T2 construct: made in house; host or cells: E. coli BL21(DE3)
T2 sequence (P0A725 whole entry C63A): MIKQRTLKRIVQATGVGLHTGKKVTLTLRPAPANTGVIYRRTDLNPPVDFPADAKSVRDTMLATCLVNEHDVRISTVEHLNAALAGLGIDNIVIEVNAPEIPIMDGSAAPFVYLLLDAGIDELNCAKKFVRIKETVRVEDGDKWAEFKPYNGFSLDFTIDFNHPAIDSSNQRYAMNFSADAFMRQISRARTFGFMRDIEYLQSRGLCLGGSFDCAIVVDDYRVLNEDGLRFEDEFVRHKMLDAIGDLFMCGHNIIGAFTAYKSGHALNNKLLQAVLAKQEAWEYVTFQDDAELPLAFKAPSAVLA
Description: In order to determine the inhibitory activities of the compounds of interest toward E. coli LpxC, a fluorescence-based enzyme assay was deployed, in which the formed deacetylated natural product UDP-3-O-[(R)-3-hydroxymyristoyl]glucosamine (2) is transformed into a fluorescent isoindole with o-phthaldialdehyde and 2-mercaptoethanol.[48],[49] […] The KM of E. coli LpxC C63A was determined experimentally using a mass spectrometry-based LpxC assay (Figure S8, Supporting Information, vide infra).
A fluorescence-based microplate assay for LpxC activity was performed as described by Clements et al.[48] The wells in a black, nonbinding, 96-well fluorescence microplate (Greiner Bio One, Frickenhausen) were filled with 93 μL of 26.9 μM UDP-3-O-[(R)-3-hydroxymyristoyl]-N-acetylglucosamine in assay buffer [40 mM sodium morpholinoethanesulfonic acid (pH 6.0), 80 μM dithiothreitol, 0.02% Brij 35]. In order to assay the inhibitors at final concentrations from 20 nM up to 20 μM, 2 μL of a respective dilution of the compounds in DMSO were added. The addition of 5 μL of a solution of purified LpxC (10 μg mL^–1) in assay buffer led to final concentrations of 25 μM UDP-3-O-[(R)-3-hydroxymyristoyl]-N-acetylglucosamine, 15 nM E. coli LpxC C63A, 2% DMSO, and from 20 nM up to 20 μM inhibitor. The microplate was incubated for 30 min at 37 °C in a plate shaker. Then, the biochemical reaction was stopped by adding 40 μL of 0.625 M sodium hydroxide. The reaction mixture was further incubated for 10 min and neutralized by adding 40 μL of 0.625 M acetic acid. The deacetylated product UDP-3-O-[(R)-3-hydroxymyristoyl]glucosamine was converted into a fluorescing isoindole by adding 120 μL of an o-phthaldialdehyde-2-mercaptoethanol solution, which was prepared by dissolving 10 mg of o-phthaldialdehyde in 1 mL of methanol, diluting the mixture with 24 mL of a sodium borate buffer (0.1 M), and finally adding 2.5 μL of 2-mercaptoethanol.[49] Fluorescence was measured with a TriStar^2 S LB 942 plate reader (Berthold, Bad Wildbad) at 340 nm excitation and 460 nm emission wavelengths. Each assay was performed at least three times on separate days. The IC50 values were calculated via Probit-log concentration graphs with the aid of the software Origin and were subsequently converted into Ki values using the Cheng–Prusoff equation.[75],[76]

E. coli TOP10 = assay: disc diffusion assay; format: cell-based; settings: 0.15 μmol per 6 mm disc
Description: (§5) In the performed disc diffusion assays, indole derivatives (S)-13h, (S)-13i, and (S)-13j caused promising halos of growth inhibition.
(§6) The disc diffusion assays against E. coli TOP10 (Thermo Fisher, Waltham, USA), E. coli ATCC 35218, K. pneumoniae ATCC 700603, and P. aeruginosa ATCC 27853 were performed as follows: the bacteria were grown overnight on a Columbia blood agar plate (Oxoid, Basingstoke, UK), and one colony was suspended in sterile saline to yield a suspension of 0.5 McFarland standard. Using a sterile swab, the suspension was spread evenly onto Mueller–Hinton agar (Oxoid, Basingstoke, UK). 0.15 μmol of each compound (dissolved in 10 μL DMSO) was applied onto circular 6 mm diameter filter paper disks, which were then placed on the agar. After incubating the agar plates for 20 h at 37 °C, the diameter of the zone of growth inhibition was measured for each compound.

E. coli ATCC 35218 = assay: disc diffusion assay; format: cell-based; settings: 0.15 μmol per 6 mm disc
Description: as §5, §6

P. aeruginosa ATCC 27853 = assay: disc diffusion assay; format: cell-based; settings: 0.15 μmol per 6 mm disc
Description: as §5, §6

Compound	IC50 (LasB) [nM]	inhibition at 20 µM (LasB) [%]	Inhibition zone E. coli BL21(DE3) (E. coli BL21(DE3) [1]) [mm]	Inhibition zone E. coli D22 (E. coli D22 [2]) [mm]	MIC (E. coli BL21(DE3) [3]) [µg/mL]	MIC (E. coli D22 [4]) [µg/mL]	fold higher LpxC inhibitory activity than its enantiomer (eudysmic ratio) (E. coli LpxC C63A) [fold]	Ki (E. coli LpxC C63A)	Inhibition zone E. coli TOP 10 (E. coli TOP10) [mm]	Inhibition zone E. coli ATCC 35218 (E. coli ATCC 35218) [mm]	Inhibition zone P. aeruginosa ATCC 27853 (P. aeruginosa ATCC 27853) [mm]	LasB Inhibition at 20 μM (LasB)	MIC E. coli BL21(DE3) (E. coli BL21(DE3) [3]) [µg/mL]
O=C(NO)[C@H](COCc1ccccc1)OCc1ccc(C#Cc2ccc(CN3CCOCC3)cc2)cc1 [(S)-11a, (S)-3-(Benzyloxy)-N-hydroxy-2-[(4-{[4-(morpholinomethyl)phenyl]ethynyl}benzyl)oxy]propanamide]	14300 ± 900	62.3 ± 3.2	≤6	15.4 ± 2.4	> 32	0.5 (≈ 0.999 µM)	6	606 ± 356 nM					
O=C(NO)[C@H](CNCc1ccccc1)OCc1ccc(C#Cc2ccc(CN3CCOCC3)cc2)cc1 [(S)-12a, (S)-3-(Benzylamino)-N-hydroxy-2-[(4-{[4-(morpholinomethyl)phenyl]ethynyl}benzyl)oxy]propanamide]	21900 ± 1200	57 ± 2	13.0 ± 1.0	24.3 ± 2.1	16 (≈ 32 µM)	0.5 (≈ 1 µM)		4590 ± 1260 nM					
O=C(NC[C@H](OCc1ccc(C#Cc2ccc(CN3CCOCC3)cc2)cc1)C(=O)NO)c1ccccc1 [(S)-13a, (S)-N-{3-(Hydroxyamino)-2-[(4-{[4-(morpholinomethyl)phenyl]ethynyl}benzyl)oxy]-3-oxopropyl}benzamide]		20.1 ± 3.9	15.7 ± 1.6	26.3 ± 1.5	8 (≈ 15.6 µM)	0.13 (≈ 0.253 µM)	17	150 nM and 149 nM	23.3 ± 0.6	19.3 ± 0.6	7.0 ± 1.0		
O=C(NC[C@H](OCc1ccc(C#Cc2ccc(CN3CCOCC3)cc2)cc1)C(=O)NO)c1cccc(-c2ccccc2)c1 [(S)-13c]		< 10	≤6	19.0 ± 1.5	> 16	0.13 (≈ 0.22 µM)		42 nM and 41.5 nM	8.0 ± 0	7.7 ± 1.5	6.3 ± 0.6	little to no inhibitory activity	
O=C(NC[C@H](OCc1ccc(C#Cc2ccc(CN3CCOCC3)cc2)cc1)C(=O)NO)c1ccc(Oc2ccccc2)cc1 [(S)-13d]		< 10	≤6	9.3 ± 1.6	> 16	0.25 (≈ 0.413 µM)		323 ± 126 nM	<6	7.0 ± 1.0	6.3 ± 0.6	little to no inhibitory activity	
O=C(NC[C@H](OCc1ccc(C#Cc2ccc(CN3CCOCC3)cc2)cc1)C(=O)NO)c1ccc2ccccc2n1 [(S)-13e]		11.6 ± 1.9	≤6	16.0 ± 2.5	> 16	0.25 (≈ 0.443 µM)		377 ± 83 nM	8.0 ± 0	7.7 ± 1.5	6.3 ± 0.6	little to no inhibitory activity	
O=C(NC[C@H](OCc1ccc(C#Cc2ccc(CN3CCOCC3)cc2)cc1)C(=O)NO)c1cnc2ccccc2c1 [(S)-13f]		< 10	11.5 ± 2.1	29.0 ± 1.0	> 16	0.25 (≈ 0.443 µM)		117 ± 21 nM	18.0 ± 6.0	15.0 ± 0	<6	little to no inhibitory activity	
O=C(NC[C@H](OCc1ccc(C#Cc2ccc(CN3CCOCC3)cc2)cc1)C(=O)NO)c1cc2ccccc2[nH]1 [(S)-13g]		< 10	10.0 ± 1.0	23.0 ± 1.0	4 to 8 (≈ 7.24 to 14.5 µM)	0.063 (≈ 0.114 µM)		87 ± 58.5 nM	16.0 ± 6.1	10.7 ± 0.6	<6	little to no inhibitory activity	8.0 (≈ 14.5 µM)
O=C(NC[C@H](OCc1ccc(C#Cc2ccc(CN3CCOCC3)cc2)cc1)C(=O)NO)c1cccc2[nH]ccc12 [(S)-13i]		27.6 ± 2.9	20.4 ± 1.6	>30		0.031 (≈ 0.0561 µM)		15.3 ± 3.6 nM	23.0 ± 1.0	17.0 ± 3.5	6.3 ± 0.6	little to no inhibitory activity	
O=C(NO)[C@H](CN(Cc1ccccc1)Cc1ccccc1)OCc1ccc(C#Cc2ccc(CN3CCOCC3)cc2)cc1 [(S)-37, (S)-3-(Dibenzylamino)-N-hydroxy-2-[(4-{[4-(morpholinomethyl)phenyl]ethynyl}benzyl)oxy]propanamide]		< 10	≤6	7.7 ± 1.2	> 16	16 (≈ 27.1 µM)		> 2540 nM				no inhibitory activity	
